Legend:
[1] = Solubility in solvent (methanol); type: physicochemical
[2] = tested on: antioxidant responsive element transcription activity (pGL3-GSTYaARE-Luciferase) in ARPE-19 cells; assay: Antioxidant responsive element luciferase reporter assay in ARPE-19 cells; type: cell-based; conditions: for antioxidant effect in comparison with trehangelin A: ARE luciferase reporter, comparison with known substance trehangelin A; for antioxidant effect: conclusion from luciferase activity vs control, FIG. 1
Method: The physiological functions of the compounds obtained above were evaluated. The evaluation of the physiological functions was carried out by using the tool described in Carnosic acid, a catechol-type electrophilic compound, protects neurons both in vitro and in vivo through activation of the Keap1/Nrf2 pathway via S-alkylation of targeted cysteines on Keap1. Takumi Satoh et al., Journal of Neurochemistry. Vol. 104, pp. 1116-1131, (2008).
Briefly, ARPE-19 cells were seeded in 24-well plates using a 10% FBS-DMEM/F12 medium (manufactured by GIBCO) so as to be 50% confluent. After 24 hours, (1) a mixed solution (vector solution) of 0.5 μg of pGL3-GSTYaARE-Luciferase vector, 0.5 μg of pSV-betaGAL vector, and 50 μL of Opti-MEM I (manufactured by GIBCO) per well and (2) a mixed solution (lipofectamine 2000) of 2 μL of lipofectamine 2000 (manufactured by Thermo Fisher) and 50 μL of Opti-MEM I (manufactured by GIBCO) per well were prepared and left at room temperature for 5 minutes. The vector solution and the lipofectamine 2000 solution were mixed and left at room temperature for 20 minutes. The resulting mixed solution was added to cultured cells (ARPE-19 cells) (100 μL per well) and cultured in a CO2 incubator for 6 hours. Subsequently, the culture medium was replaced with a new 10% FBS-DMEM/F12 medium (0.5 mL/well), followed by culturing for 18 hours. The culture medium was then replaced with a new 10% FBS-DMEM/F12 medium (0.3 mL/well) or a 10% FBS-DMEM/F12 medium (0.3 mL/well) containing […] of various trehangelin derivatives, followed by culturing for 24 hours. After the medium was removed, 150 μL of PassiveLysisBuffer (manufactured by Promega) was added to prepare a cell lysis solution.
100 μL of each cell lysis solution was placed on a 96-well plate, and 100 μL of β-GAL assay kit solution (manufactured by Promega) was added, followed by incubation at 37° C. for 3 hours. Then, β-GAL activity was confirmed by measuring the absorbance at 405 nm.
20 μL of each cell lysis solution was placed in a 96-well plate which differs from the above 96-well plate, and 100 μL of each luciferase assay kit solution (manufactured by Promega) was added. Then, luciferase activity was measured by measuring the luminescence. The obtained result on the luciferase activity was corrected by dividing them by the result on the β-GAL activity, and the antioxidant responsive element transcription activity was calculated.

Solubility in solvent [1]	SMILES	antioxidant effect in comparison with trehangelin A [2]	antioxidant effect [2]
Poorly soluble in methanol	C/C=C\C(=O)OC1C(O)C(CO)OC(OC2OC(CO)C(O)C(OC(=O)/C(C)=C\C)C2O)C1O (centres unmarked) [3-O-angeloyl-3′-O-isocrotonyltrehalose]	higher antioxidant effect than trehangelin A	have an antioxidant effect
Poorly soluble in methanol	C/C=C(/C)C(=O)OC1C(O)C(CO)OC(OC2OC(CO)C(O)C(OC(C)=O)C2O)C1O (centres unmarked) [3-O-acetyl-3′-O-angeloyltrehalose]	–	have an antioxidant effect
Poorly soluble in methanol	C/C=C(/C)C(=O)OC1C(O)C(CO)OC(OC2OC(CO)C(O)C(O)C2O)C1O (centres unmarked) [3-O-angeloyltrehalose]	almost the same level of antioxidant effect as that of trehangelin A	have an antioxidant effect
Poorly soluble in methanol	C/C=C(/C)C(=O)OC1C(O)C(CO)OC(OC2OC(CO)C(O)C(OC(=O)/C(C)=C\CC)C2O)C1O (centres unmarked) [3-O-(2-methyl-2-butenoyl)-3′-O-(2-methyl-2-pentenoyl)trehalose]	higher antioxidant effect than trehangelin A	have an antioxidant effect

Source: patent US20250333432A1, “NOVEL COMPOUND AND USE OF SAME” (NAGASE & CO., LTD., priority 2020, published 2025)
